Patent US8101774B2, “Ester derivatives and medicinal use thereof” (Japan Tobacco Inc., priority 2004, dated 2012)

How the values were obtained:
[1] = Metabolic stability test in liver S9; type: in vitro ADME; conditions: human liver S9 2 mg protein/mL, 37° C.
Procedure: Human liver S9 (final concentration: 2 mg protein/mL), was suspended in 100 mM potassium phosphate buffer (pH 7.4, containing β-nicotinamide adenine dinucleotide phosphate: 1.3 mM, D-glucose-6-phosphate: 3.3 mM, magnesium chloride: 3.3 mM, glucose-6-phosphate dehydrogenase: 0.4 U/mL). The suspension was mixed with a solution of a sample dissolved in DMSO. The solution was incubated at 37° C. for 0, 10 and 60 minutes, and an acetonitrile containing formic acid (final concentration: 0.1%) was added thereto. The solutions were centrifuged, and the concentration of the sample (unchanged form) in the supernatant was determined by high performance liquid chromatography/mass spectrometry (LC/MS). Based on the data obtained, remaining rate (%) was calculated according to the following equation. Remaining rate(%)=amount of sample 0, 10, or 60 minutes after incubation/amount of sample at zero time after incubation×100

[2] = target: T1, Microsomal triglyceride transfer protein (MTP) from human small intestine microsome (Homo sapiens, UniProt P55157); test: Inhibition test of interliposomal triglyceride (TG) transfer activity by MTP; type: biochemical; conditions: purified MTP from human small intestine microsome, 37° C., 1.5 hours
T1 construct: Human small intestine microsome was dialyzed against 10 mM phosphate buffer; tissue Tissue Transforming Technologies, Inc; host or cells: human small intestine microsome
Outline: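 DEAE-purified human small intestine MTP (50 μL of 20 μg/mL) incubated 1.5 hours at 37° C with ^14C-triolein donor and unlabelled acceptor SUV liposomes in pH 7.4 Tris buffer with 0.5% BSA. Donor removed on DEAE cellulose; acceptor radioactivity counted, blank-corrected against DMSO control, giving percent inhibition and IC50.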

[3] = Stability test in buffer (pH 7.4); type: physicochemical; conditions: 100 mM potassium phosphate buffer (pH 7.4):acetonitrile 7:3, 37° C.
Procedure: In the tables, Buf. remaining rate was determined by stability test in buffer (pH 7.4) as described below. A sample dissolved in DMSO was mixed with a mixed solution of 100 mM potassium phosphate buffer and acetonitrile in the ratio of 7:3 (v/v). The mixture was incubated at 37° C. for 0, 10, and 60 minutes, and acetonitrile containing formic acid (final concentration: 0.1%) was added thereto. The solution was centrifuged, and the concentration of the sample (unchanged form) in the supernatant was determined by high performance liquid chromatography/mass spectrometry (LC/MS). Based on the data obtained, Buf. remaining rate (%) was calculated according to the following equation. Buf. remaining rate(%)=amount of sample 0, 10, or 60 minutes after incubation/amount of sample at zero time after incubation×100

[4] = Metabolic stability test in plasma; type: in vitro ADME; conditions: 37° C.
Procedure: A sample dissolved in DMSO was added to plasma of human or animal species (mouse and hamster). The solutions were incubated at 37° C. for 0, 10 and 60 minutes, and acetonitrile containing formic acid (final concentration: 0.1%) was added thereto. The solutions were centrifuged, and the concentration of the sample (unchanged form) in the supernatant was determined by high performance liquid chromatography/mass spectrometry (LC/MS). Based on the data obtained, the remaining rate (%) was calculated according to the following equation. Remaining rate(%)=amount of sample 0, 10, or 60 minutes after incubation/amount of sample at zero time after incubation×100 With respect to the compounds obtained in Working Examples according to the present invention (Compounds 1-1 to 1-115, 2-1, 3-1, 3-2, and 4-1 to 4-4), the results of the remaining rate in human liver S9 and plasma are shown in Tables 28 to 32.

T1 sequence (P55157 19-894): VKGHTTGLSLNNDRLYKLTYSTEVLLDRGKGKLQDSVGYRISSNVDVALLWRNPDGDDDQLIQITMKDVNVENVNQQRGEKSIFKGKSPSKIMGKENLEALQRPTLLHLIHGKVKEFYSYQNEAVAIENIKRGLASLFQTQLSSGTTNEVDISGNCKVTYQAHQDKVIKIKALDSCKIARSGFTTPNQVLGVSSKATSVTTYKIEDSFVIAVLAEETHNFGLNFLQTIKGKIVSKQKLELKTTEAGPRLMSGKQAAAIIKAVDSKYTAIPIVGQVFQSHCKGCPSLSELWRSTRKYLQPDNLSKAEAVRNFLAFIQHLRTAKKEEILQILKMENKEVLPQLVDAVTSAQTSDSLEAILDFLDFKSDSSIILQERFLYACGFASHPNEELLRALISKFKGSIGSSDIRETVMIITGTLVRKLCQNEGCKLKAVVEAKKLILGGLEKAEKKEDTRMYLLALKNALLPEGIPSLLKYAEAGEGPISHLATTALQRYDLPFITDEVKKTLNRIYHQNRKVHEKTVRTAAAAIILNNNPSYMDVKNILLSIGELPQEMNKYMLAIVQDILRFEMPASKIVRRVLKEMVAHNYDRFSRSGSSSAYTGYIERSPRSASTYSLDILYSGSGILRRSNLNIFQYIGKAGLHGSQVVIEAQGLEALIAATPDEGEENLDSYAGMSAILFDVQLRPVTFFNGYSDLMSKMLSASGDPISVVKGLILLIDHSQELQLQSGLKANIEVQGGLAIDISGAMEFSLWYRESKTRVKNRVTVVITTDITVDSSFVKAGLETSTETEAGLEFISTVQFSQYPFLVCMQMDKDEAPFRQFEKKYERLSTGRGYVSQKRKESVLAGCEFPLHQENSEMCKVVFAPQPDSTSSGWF
T1 sequence (P07237 18-508 partner): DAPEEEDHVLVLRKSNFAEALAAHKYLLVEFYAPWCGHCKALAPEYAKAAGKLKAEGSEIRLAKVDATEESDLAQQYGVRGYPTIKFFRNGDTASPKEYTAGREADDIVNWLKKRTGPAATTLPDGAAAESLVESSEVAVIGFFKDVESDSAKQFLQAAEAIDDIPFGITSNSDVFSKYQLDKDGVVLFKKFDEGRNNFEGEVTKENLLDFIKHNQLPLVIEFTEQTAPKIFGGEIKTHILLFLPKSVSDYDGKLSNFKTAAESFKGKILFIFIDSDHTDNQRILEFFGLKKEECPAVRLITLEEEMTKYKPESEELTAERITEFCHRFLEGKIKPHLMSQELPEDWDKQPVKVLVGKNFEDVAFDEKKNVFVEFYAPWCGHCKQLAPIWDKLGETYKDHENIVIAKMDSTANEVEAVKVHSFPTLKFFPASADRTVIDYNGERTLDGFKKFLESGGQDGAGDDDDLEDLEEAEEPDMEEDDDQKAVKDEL

| SMILES | IC50 [2] [nM] | further results |
| --- | --- | --- |
| COC(=O)c1ccc(OC(=O)C2CCN(c3ccc(NC(=O)c4ccccc4-c4ccc(C(F)(F)F)cc4)c(C(=O)N(C)C)c3)CC2)c(F)c1 [Compound 3-2, 1-{3-dimethylcarbamoyl-4-[(4′-trifluoromethylbiphenyl-2-carbonyl)amino]phenyl}piperidine-4-carboxylic acid 2-fluoro-4-methoxycarbonylphenyl ester] | 10 to 100 |  |
| COc1cc(C(=O)OC(C)C)cc(F)c1OC(=O)CCCc1ccc(NC(=O)c2ccc(C)nc2-c2ccc(C(F)(F)F)cc2)c(C(=O)N(C)C)c1 [Compound 1-38, 4-[4-(3-dimethylcarbamoyl-4-{[6-methyl-2-(4-trifluoromethylphenyl)pyridine-3-carbonyl]amino}phenyl)butyryloxy]-3-fluoro-5-methoxybenzoic acid isopropyl ester] | 10 to 100 |  |
| CN(C)C(=O)c1cc(CCC(=O)Oc2ccccc2)ccc1NC(=O)c1ccccc1-c1ccc(C(F)(F)F)cc1 [Compound 1-1, 3-{3-dimethylcarbamoyl-4-[(4′-trifluoromethylbiphenyl-2-carbonyl)amino]phenyl}propionic acid phenyl ester] | 10 to 100 |  |
| COc1cc(C(=O)OCCNC(C)=O)cc(Cl)c1OC(=O)CCCc1ccc(NC(=O)c2ccc(C)nc2-c2ccc(C(F)(F)F)cc2)c(C(=O)N(C)C)c1 [Compound 1-114, 3-chloro-4-[4-(3-dimethylcarbamoyl-4-{[6-methyl-2-(4-trifluoromethylphenyl)pyridine-3-carbonyl]amino}phenyl)butyryloxy]-5-methoxybenzoic acid 2-acetylaminoethyl ester] | < 10 |  |

More lines, main results first:

| IC50 [2] [nM] | SMILES | further results |
| --- | --- | --- |
| < 10 | COC(=O)c1ccc(OC(=O)CCCc2ccc(NC(=O)c3ccccc3-c3ccc(C(F)(F)F)cc3)c(C(=O)N(C)C)c2)c(C)c1 [Compound 1-66, 4-[4-(3-dimethylcarbamoyl-4-{(4′-trifluoromethylbiphenyl-2-carbonyl)amino}phenyl)butyryloxy]-3-methylbenzoic acid methyl ester] | Remaining rate in human liver S9 (%/10 min) ([1]; 10 min): 3%; Remaining rate in human liver S9 (%/60 min) ([1]; 60 min): 0%; Buf. remaining rate (%/10 min) ([3]; 10 min): 101%; Buf. remaining rate (%/60 min) ([3]; 60 min): 103%; Remaining rate in human plasma (%/60 min) [4]: 8% |
| < 10 | COC(=O)c1ccc(-c2nc(C)ccc2C(=O)Nc2ccc(CCCC(=O)Oc3c(C)cc(C(=O)OC)cc3Cl)cc2C(=O)N(C)C)cc1 [Compound 4-1, 3-chloro-4-[4-(3-dimethylcarbamoyl-4-{[2-(4-methoxycarbonylphenyl)-6-methylpyridine-3-carbonyl]amino}phenyl)butyryloxy]-5-methylbenzoic acid methyl ester] |  |
| < 10 | COC(=O)c1cc(C(=O)OC(C)C)ccc1OC(=O)CCCc1ccc(NC(=O)c2ccc(C)nc2-c2ccc(C(F)(F)F)cc2)c(C(=O)N(C)C)c1 [Compound 1-72, 4-[4-(3-dimethylcarbamoyl-4-{[6-methyl-2-(4-trifluoromethylphenyl)pyridine-3-carbonyl]amino}phenyl)butyryloxy]isophthalic acid 1-isopropyl ester 3-methyl ester] |  |
| < 10 | CCCC(=O)c1ccc(OC(=O)CCCc2ccc(NC(=O)c3ccccc3-c3ccc(C(F)(F)F)cc3)c(C(=O)N(C)C)c2)cc1 [Compound 1-93, 4-(3-dimethylcarbamoyl-4-{(4′-trifluoromethylbiphenyl-2-carbonyl)amino}phenyl)butyric acid 4-butyrylphenyl ester] |  |
| < 10 | CC(OC(=O)c1ccc(OC(=O)CCCc2ccc(NC(=O)c3ccccc3-c3ccc(C(F)(F)F)cc3)c(C(=O)N(C)C)c2)cc1)c1ccccc1 (stereo not drawn) [Compound 1-106, 4-[4-(3-dimethylcarbamoyl-4-{(4′-trifluoromethylbiphenyl-2-carbonyl)amino}phenyl)butyryloxy]benzoic acid 1-phenylethyl ester] |  |
| < 10 | CCc1cc(C(=O)OC)ccc1OC(=O)CCCc1ccc(NC(=O)c2ccccc2-c2ccc(C(F)(F)F)cc2)c(C(=O)N(C)C)c1 [Compound 1-67, 4-[4-(3-dimethylcarbamoyl-4-{(4′-trifluoromethylbiphenyl-2-carbonyl)amino}phenyl)butyryloxy]-3-ethylbenzoic acid methyl ester] |  |
